The numbers were not newly measured in US11350648B2, “Compositions and related methods for agriculture” (priority 2017, dated 2022), which cites them from elsewhere.

This series relates to gram-negative and gram-positive bacteria as well as fungi.

On to “NCR335: cationic NCR peptide (RQMIILRLNTTFRPLNFKMLRFWGQN)”, for which the antimicrobial activity result is “effective against gram-negative and gram-positive bacteria as well as fungi”.
